From patent publication US7476691B2, “Sulfamate benzothiophene derivatives as steroid sulfatase inhibitors” (Laboratoire Theramex, priority 2003, dated 2009) come the findings set out here.

Test system in one data set: not given
Assay: not given
Conditions: not given
Turning to `CCCc1cc2ccc(OS(N)(=O)=O)cc2s1` [Ex 38, Sulfamic acid, 2-propyl-benzothiophene-6-yl ester], the melting point stood at 112 °C.
For `CCCCCCc1cc2ccc(OS(N)(=O)=O)cc2s1` [Ex 39, Sulfamic acid, 2-hexyl-benzothiophene-6-yl ester], the melting point stood at 125 °C.
Still for that read-out and setting: as for `NS(=O)(=O)Oc1ccc2cc(CC3CCCCC3)sc2c1` [Ex 40, Sulfamic acid, 2-cyclohexylmethyl-benzothiophene-6-yl ester], the figure is 115 °C.
The compound `NS(=O)(=O)Oc1ccc2cc(CC3CCCCCC3)sc2c1` [Ex 41, Sulfamic acid, 2-cycloheptylmethyl-benzothiophene-6-yl ester] had a melting point of 90 °C.
Same read-out and setting: as for `CC1CCCCC1C1=Cc2ccc(OS(N)(=O)=O)cc2S1(=O)=O` (stereo not shown) [Ex 49, Sulfamic acid, 2-(2-methylcyclohexyl)-benzothiophene-6-yl-1,1-dioxide ester], the figure is 92 °C; as for `CC1(C)CCCC1C1=Cc2ccc(OS(N)(=O)=O)cc2S1(=O)=O` (stereo not shown) [Ex 50, Sulfamic acid, 2-(2,2-dimethylcyclopentyl)-benzothiophene-6-yl-1,1-dioxide ester], 172 °C.
As to `CCCC1=Cc2ccc(OS(N)(=O)=O)cc2S1(=O)=O` [Ex 52, Sulfamic acid, 2-propyl-benzothiophene-6-yl-1,1-dioxide ester], the melting point is 159 °C.
`CCCCCCC1=Cc2ccc(OS(N)(=O)=O)cc2S1(=O)=O` [Ex 53, Sulfamic acid, 2-hexyl-benzothiophene-6-yl-1,1-dioxide ester] displayed a melting point of 98 °C.
Take `Cc1c(OS(N)(=O)=O)ccc2cc(C3CCCCCC3)sc12` [Ex 62, Sulfamic acid, 2-cycloheptyl-7-methyl-benzothiophene-6-yl ester]: the melting point worked out at 107 °C.
Consider `NS(=O)(=O)Oc1ccc2c3c(sc2c1)CCCC3` [Ex 64, Sulfamic acid, 1,2,3,4-tetrahydro-dibenzothiophene-7-yl ester], for which the melting point came out at 165 °C.
In the case of `Cc1c(OS(N)(=O)=O)ccc2c1S(=O)(=O)C(C1CCCCCC1)=C2` [Ex 65, Sulfamic acid, 2-cycloheptyl-7-methyl-benzothiophene-6-yl-1,1-dioxide ester], the melting point was found to be 90 °C.

In a further data set the test system is prepubescent female rats. The data set can be described thus: Residual estrogenic activity in vivo (uterotrophic assay). The conditions noted are these: prepubescent female rats, oral, 1 mg/rat/day for 3 days.
Experimental: These compounds were checked for residual estrogenic activity in vivo in the classical uterotrophic assay after 3-day administration by oral route in prepubescent female rats.
Prepubescent female rats were orally treated at 1 mg/rat/day for 3 days. On the day following the last treatment, uteri were removed and wet weight were recorded.
The results are expressed as % of stimulation of uterus weight in comparison with controls.
As for `CC1CCCCC1C1=Cc2ccc(OS(N)(=O)=O)cc2S1(=O)=O` (stereo not shown) [Ex 49, Sulfamic acid, 2-(2-methylcyclohexyl)-benzothiophene-6-yl-1,1-dioxide ester], the “% stimulation of uterus weight in comparison with controls” value worked out at 8%.
Take `CC1(C)CCCC1C1=Cc2ccc(OS(N)(=O)=O)cc2S1(=O)=O` (stereo not shown) [Ex 50, Sulfamic acid, 2-(2,2-dimethylcyclopentyl)-benzothiophene-6-yl-1,1-dioxide ester]: the “% stimulation of uterus weight in comparison with controls” value is given as 24%.

The next data set deals with T1, estrone sulfatase (Homo sapiens, UniProt P08842).
T1 sequence (P08842 22-583): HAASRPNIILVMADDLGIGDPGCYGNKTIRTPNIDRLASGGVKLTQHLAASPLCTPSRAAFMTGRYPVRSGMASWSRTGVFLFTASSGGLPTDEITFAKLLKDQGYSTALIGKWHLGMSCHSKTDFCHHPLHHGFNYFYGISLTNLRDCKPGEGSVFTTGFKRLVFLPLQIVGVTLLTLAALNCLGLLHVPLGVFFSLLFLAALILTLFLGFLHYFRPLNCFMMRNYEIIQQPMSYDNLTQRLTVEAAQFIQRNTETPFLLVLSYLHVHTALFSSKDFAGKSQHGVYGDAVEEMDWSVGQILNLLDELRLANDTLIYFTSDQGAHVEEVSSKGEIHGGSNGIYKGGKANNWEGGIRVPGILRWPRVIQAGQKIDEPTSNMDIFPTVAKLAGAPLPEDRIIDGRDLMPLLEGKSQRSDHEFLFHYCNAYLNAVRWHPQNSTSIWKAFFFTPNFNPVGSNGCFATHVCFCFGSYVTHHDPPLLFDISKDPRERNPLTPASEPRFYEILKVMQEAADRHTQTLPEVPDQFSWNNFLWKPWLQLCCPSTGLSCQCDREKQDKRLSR
The data set can be described thus: Estrone sulfatase whole-cell assay on JEG-3 cells. The class given is cell-based. More on the design: The JEG-3 cell line, derived from a human placental choriocarcinoma, is spontaneously very rich in human estrone sulfatase; endogenous in cells; host or cells: JEG-3 (human placental choriocarcinoma), intact cells. The conditions noted are these: 4 h treatment, 3H-E1S, read-out: IC50 (nM) ± S.E.M., inhibition of estrone sulfatase. The method, then: (§1) Two in vitro models on whole cells were used. […] Moreover, these cells were used in the in vivo model of hormono-dependent induced xenografts.
(§2) Estrone Sulfatase Assay on Cells
(§3) Whole-cell assays were performed as originally described by Duncan et al. (Cancer Res., 1993, 53: 298-303) on intact MCF-7 cell monolayers. Assays were carried out with cells in logarithmic growth phase, on 96-well (JEG-3) or 24-well (MCF-7) microplates. Twenty-four hours (JEG-3) or 72 h (MCF-7) before studies, cells were seeded in decomplemented fetal calf serum (dFCS) supplemented medium. Then, the seeding medium was removed and the cells were rinsed with PBS to eliminate any trace of dFCS. Then, ^3H-E1S was added, followed by test compounds ranging from 10^−12 M to 10^−5 M. After 4 h (JEG-3) or 20 h (MCF-7) of treatment, the medium was transferred into either 96-deep-well microplates (JEG-3) or plastic tubes (MCF-7) and centrifuged at 200×g for 10 min to pellet cells before toluene extraction. A fraction of medium was used for toluene extraction in order to separate conjugated substrate and non-conjugated products. The radioactivity in the toluene phase was measured by liquid scintillation counting (LSC). Finally, estrone sulfatase activity was expressed in pmoles of ^3H-E1+^3H-E2 formed per 4 or 20 hours and per μg DNA and estrone sulfatase inhibition in percentage of control activity without inhibitor.
Turning to `C[C@]12CCC3c4ccc(OS(N)(=O)=O)cc4CCC3C1CCC2=O` (stereo partly shown) [EMATE, estrone-3-sulfamate, reference compound], the IC50 was found to be 3.2 ± 0.2 nM.
With `CCCC1=Cc2ccc(OS(N)(=O)=O)cc2S1(=O)=O` [Ex 52, Sulfamic acid, 2-propyl-benzothiophene-6-yl-1,1-dioxide ester], the IC50 worked out at 24.7 ± 5 nM.
Turning to `CCCCCCC1=Cc2ccc(OS(N)(=O)=O)cc2S1(=O)=O` [Ex 53, Sulfamic acid, 2-hexyl-benzothiophene-6-yl-1,1-dioxide ester], the IC50 was 12.5 ± 3.3 nM.
Take `NS(=O)(=O)Oc1ccc2c3c(sc2c1)CCCC3` [Ex 64, Sulfamic acid, 1,2,3,4-tetrahydro-dibenzothiophene-7-yl ester]: the IC50 turned out to be 566 ± 130 nM.
Turning to `Cc1c(OS(N)(=O)=O)ccc2c1S(=O)(=O)C(C1CCCCCC1)=C2` [Ex 65, Sulfamic acid, 2-cycloheptyl-7-methyl-benzothiophene-6-yl-1,1-dioxide ester], the IC50 stood at 31.7 ± 9.9 nM.

The next data set deals with T1, estrone sulfatase. The data set can be described thus: Estrone sulfatase whole-cell assay on MCF-7 cells. Also noted: Whole-cell assays were performed as originally described by Duncan et al. (Cancer Res., 1993, 53: 298-303) on intact MCF-7 cell monolayers; endogenous in cells; host or cells: MCF-7 (human breast adenocarcinoma), intact monolayers. The data set is classed as cell-based. The settings on record: 20 h treatment, 3H-E1S, read-out: IC50 (nM) ± S.E.M., inhibition of estrone sulfatase. Here is the method: as §1, §2, §3
As to `C[C@]12CCC3c4ccc(OS(N)(=O)=O)cc4CCC3C1CCC2=O` (stereo partly shown) [EMATE, estrone-3-sulfamate, reference compound], the IC50 was 0.06 ± 0.01 nM.
